Target: Carbonic anhydrase 9 (Homo sapiens, UniProt Q16790)
Description: Inhibition of full length human CA9 incubated for 15 mins by phenol red dye based stopped flow CO2 hydration assay

Row | Structure (SMILES) | Ki [nM]
1 | NS(=O)(=O)c1ccc(C(=O)N2CCN(C(=O)c3ccco3)CC2)cc1 | 3170
2 | NS(=O)(=O)c1ccc(C(=O)N2CCN(C(=O)c3cc4ccccc4s3)CC2)cc1 | 97.9
3 | NS(=O)(=O)c1ccc(C(=O)N2CCN(C(=O)c3ccc4ccccc4c3)CC2)cc1 | 2990
4 | NS(=O)(=O)c1ccc(C(=O)N2CCN(C(=O)c3ccc[nH]3)CC2)cc1 | 277
5 | NS(=O)(=O)c1ccc(C(=O)N2CCN(C(=O)c3ccc([N+](=O)[O-])s3)CC2)cc1 | 171
6 | NS(=O)(=O)c1ccc(C(=O)N2CCN(C(=O)c3sccc3Br)CC2)cc1 | 125
7 | Cc1ccoc1C(=O)N1CCN(C(=O)c2ccc(S(N)(=O)=O)cc2)CC1 | 3050
8 | NS(=O)(=O)c1ccc(C(=O)N2CCN(C(=O)c3cc4ccccc4[nH]3)CC2)cc1 | 9.2
9 | NS(=O)(=O)c1ccc(C(=O)N2CCN(C(=O)c3ccc(Cl)s3)CC2)cc1 | 382
10 | Cc1ccsc1C(=O)N1CCN(C(=O)c2ccc(S(N)(=O)=O)cc2)CC1 | 2920
11 | NS(=O)(=O)c1ccc(C(=O)N2CCN(C(=O)c3ccc([N+](=O)[O-])o3)CC2)cc1 | 976
12 | NS(=O)(=O)c1ccc(C(=O)N2CCN(C(=O)c3cc4ccccc4o3)CC2)cc1 | 2940
13 | NS(=O)(=O)c1ccc(C(=O)N2CCN(C(=O)c3cccs3)CC2)cc1 | 3280

From ChEMBL document CHEMBL4811315, “Design, synthesis and biochemical evaluation of novel carbonic anhydrase inhibitors triggered by structural knowledge on hCA VII” (Bioorg Med Chem, 2021)
